Reference: US8901313B2, “6,5-heterocyclic propargylic alcohol compounds and uses therefor” (Genentech, Inc., priority 2011, dated 2014)

Experiments:
[1] = tested on: REL-A (p65) nuclear translocation in HeLa cells; experiment: NIK RelA Translocation Assay (classical NF-kB signaling); format: cell-based; conditions: Homo sapiens; HeLa cells, compounds 4.5 hours, 10 ng/mL TNF-α 30 minutes; read-out: inhibitory value (IC50) for NIK RelA Translocation Assay
Procedure: (§1) (2) A second set of cell assay was used to define the selectivity of NIK inhibitors toward inhibition of classical vs. non-classical NF-kB signaling and rely on quantification of the nuclear translocation of p52 (NF-kB2) and REL-A (p65) using high content cellular imaging. For the p52 (non-classical NF-kB signaling) nuclear translocation assay, HeLa cells were treated with different concentrations of compounds (0.2% DMSO final) in medium containing 10% fetal bovine serum and then stimulated with 100 ng/mL of an anti-lymphotoxin beta receptor antibody (R&D Systems) for 5 hours. In the REL-A nuclear translocation assay, HeLa cells were incubated with compounds (0.2% DMSO final) for 4.5 hours in medium containing 10% fetal bovine serum before stimulating them with 10 ng/mL tumor necrosis factor (TNF)-α (R&D Systems) for 30 minutes. Cells were fixed with 4% paraformaldehyde, permeabilized by adding 0.1% Triton X-100 in phosphate buffered saline, and then incubated with either 2 ug/mL anti-p52 antibody (Millipore) or 400 ng/mL anti-REL-A (p65) antibody (Santa Cruz Biotechnology). Finally, the cells were incubated with an Alexa488-labeled secondary antibody (Invitrogen) and DRAQ5 DNA stain (Biostatus). Imaging was carried out using an Opera reader (Perkin Elmer) and data are analyzed with the aid of Acapella software (Perkin Elmer). The p52 or REL-A translocation into the nucleus was quantified by the ratio of the nuclear to cytoplasmic signal intensity. The concentration of inhibitor required for 50% inhibition (IC50 values) in these cell assays were derived from the plots of signal vs. inhibitor concentration. The compounds in listed in Table 1 have the corresponding inhibitory value (IC50 in micromolar) for NIK p52 Translocation Assay (values for compounds are presented in the same order as found in Table 1, and “na” means the data for this assay is to be determined): 0.326, 0.33, na, na, na, 0.218, 0.07, na, na, na, 0.129, 7.6, 0.077, 3.4, na, 0.518, na, 0.059, 0.514, 0.127, na, na, 0.010, na, na, 0.313, 0.275, na, 0.0727, na, na, na, na, na, na, 0.194, na, 6.4, 0.22, 0.346, na, na, na and na, na, na, na, na, na, 0.447, na, 0.089, 0.479, 0.489, 0.243, 0.747, 1, na, 1.9, 0.552, 2.1, na. na, na, na, na and na.
The compounds in listed in Table 1 has the corresponding inhibitory value (IC50 in micromolar) for NIK RelA Translocation Assay (values for compounds are presented in the same order as found in Table 1): 0.326, 0.33, na, na, na, 0.218, 0.07, na, na, na, na, na, 0.129, 7.6, 0.077, 3.4, na, 0.518, na, 0.059, 0.514, 0.127, na, na, 0.010, na, na, 0.313, 0.275, na, na, 0.0727, na, na, na, na, na, na, 0.194, na, 6.4, 0.22, 0.346, na, na, na, na, na, na, na, na, na, 0.447, na, 0.089, 0.479, 0.489, 0.243, 0.747, 1, na, 1.9, 0.552, 2.1, na, na, na, na, na and na.

[2] = tested on: human embryonic kidney 293 cells; experiment: 293-NIK TK Renilla Luciferase reporter (general measure of cell viability); format: cell-based; conditions: HEK293, 293 cells, constitutive Renilla luciferase, 24 hours, read-out: inhibitory value (IC50) for 293-NIK TK Renilla Luciferase activity
Description: (§2) (1) The first assay was used to profile whether a test compound can inhibit the NF-kB signally through NIK inhibition without affecting cell viability. In this assay, human embryonic kidney 293 cells was stably transfected with a tetracycline-inducible NIK DNA construct containing a cytomegalovirus promoter plus two reporter DNA constructs. One reporter encoded firefly luciferase under the control of three repeats of an NF-kB response element from the ELAM-1 gene and reflects the level of NIK activity in the cells, whereas the other reporter constitutively expressed Renilla luciferase under the control of the herpes simplex virus thymidine kinase promoter and served as a general measure of cell viability. Cells were incubated with different concentrations of compounds (0.2% DMSO final) in medium containing 1 ug/mL doxycycline and 10% tet-system approved fetal bovine serum (Clontech) for 24 hours, after which the reporters' signals were detected using the Dual Glo luciferase detection system (Promega) according to the vendor's protocol. The compounds listed in Table 1 have the corresponding inhibitory value (IC50 in micromolar) for 293-NIK NF-kB-Luciferase activity (values for compounds are presented in the same order as found in Table 1): na, 0.059, na, na, na, 0.105, 0.027, na, 20, 1.2, na, 1.8, 0.0231, 0.879, 0.0361, 0.582, na, 0.142, na, 0.403, 0.059, 0.0331, na, na, 0.0573, 1.5, na, na, 0.0722, na, na, 0.589, 12.7, 3.7, 14.9, na, 0.707, 1, 0.0311, 0.332, 0.309, 0.0142, 0.051, 2.8, 0.129, na, na, 1.5, na, na, na, 1.3, 0.062, 20, 0.31, 0.104, 0.091, 0.037, 0.085, 0.279, na, 0.305, 0.064, 0.332, 0.133, 0.168, 0.217, 0.553, na and na.
The compounds in listed in Table 1 have the corresponding inhibitory value (IC50 in micromolar) for 293-NIK TK Renilla Luciferase activity: (values for compounds are presented in the same order as found in Table 1): 6.4, 3.6, 20, na, 1.6, 9.3, 18.5, na, na, 2.6, na, na, na, na, na, na, na, na, na, na, na, na, na, na, na, na, na, na, na, na, na, na, na, na, na, na, na, na, na, na, na, na, na, na, na, na, na, >20, na, na, na, 20, >20, 17, 1.3, 15.6, 0.967, 2.7, 11.2, 5.1, na, 20, 20, 20, 20, 20, 17.6, 20, na and na.

[3] = tested on: p52 (NF-kB2) nuclear translocation in HeLa cells; experiment: NIK p52 Translocation Assay (non-classical NF-kB signaling); format: cell-based; conditions: Homo sapiens; HeLa cells, 100 ng/mL anti-lymphotoxin beta receptor antibody, 5 hours; read-out: inhibitory value (IC50) for NIK p52 Translocation Assay
Procedure: as §1

[4] = tested on: NF-kB signaling through NIK in human embryonic kidney 293 cells; experiment: 293-NIK NF-kB-Luciferase reporter assay; format: cell-based; conditions: HEK293, 293 cells with tetracycline-inducible NIK, 1 ug/mL doxycycline, 24 hours, read-out: inhibitory value (IC50) for 293-NIK NF-kB-Luciferase activity
Description: as §2

[5] = molecular target: T1, nuclear factor-kappa B (NF-kB)-inducing kinase (NIK) (Homo sapiens, UniProt Q99558); experiment: NIK Enzyme Inhibition Assay (Transcreener ADP assay); format: biochemical; conditions: purified NIK 0.2-1 nM, 10 uM ATP, fluorescence polarization, Morrison's quadratic equation; read-out: inhibitory value (Ki) for NIK
T1 construct: made in house; host or cells: baculovirus-infected insect cells
T1 sequence (Q99558 whole entry): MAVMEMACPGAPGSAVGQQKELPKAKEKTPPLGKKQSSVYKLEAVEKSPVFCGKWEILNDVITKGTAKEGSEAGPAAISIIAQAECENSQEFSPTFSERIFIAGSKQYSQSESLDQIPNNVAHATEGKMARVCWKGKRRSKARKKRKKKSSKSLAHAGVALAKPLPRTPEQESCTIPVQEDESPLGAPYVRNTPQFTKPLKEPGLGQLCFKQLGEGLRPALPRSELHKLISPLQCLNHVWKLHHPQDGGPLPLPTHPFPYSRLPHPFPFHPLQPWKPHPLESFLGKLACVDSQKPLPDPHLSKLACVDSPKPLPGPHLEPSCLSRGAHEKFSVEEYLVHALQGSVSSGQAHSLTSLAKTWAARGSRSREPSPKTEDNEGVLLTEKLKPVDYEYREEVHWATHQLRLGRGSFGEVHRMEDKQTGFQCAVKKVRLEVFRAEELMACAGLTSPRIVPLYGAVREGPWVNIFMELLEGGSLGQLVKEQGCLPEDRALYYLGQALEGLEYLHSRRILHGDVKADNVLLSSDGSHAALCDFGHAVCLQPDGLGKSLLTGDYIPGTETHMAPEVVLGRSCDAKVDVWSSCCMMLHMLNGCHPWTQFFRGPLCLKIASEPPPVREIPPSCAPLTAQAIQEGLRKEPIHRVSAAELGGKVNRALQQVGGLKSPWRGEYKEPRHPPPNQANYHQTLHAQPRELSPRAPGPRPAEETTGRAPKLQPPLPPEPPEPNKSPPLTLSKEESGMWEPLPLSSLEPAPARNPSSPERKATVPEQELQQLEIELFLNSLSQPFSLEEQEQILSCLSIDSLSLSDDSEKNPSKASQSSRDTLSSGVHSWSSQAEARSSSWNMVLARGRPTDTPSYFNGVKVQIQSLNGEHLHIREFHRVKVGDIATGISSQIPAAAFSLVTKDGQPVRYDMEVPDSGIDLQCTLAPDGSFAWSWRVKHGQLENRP

Compound	IC50 [1] [nM]	IC50 [2] [nM]	IC50 [3] [nM]	IC50 [4] [nM]	Ki [5] [nM]
CC(O)(C#Cc1ccc2cnn(-c3ccnc(N)n3)c2c1)c1nccs1 (centres unmarked) [Example T1-1, 4-(1-(2-aminopyrimidin-4-yl)-1H-indazol-6-yl)-2-(thiazol-2-yl)but-3-yn-2-ol]	326	6400	326	–	–
N#Cc1ccc2cnn(-c3ccnc(N)n3)c2c1 [Example T1-3, 1-(2-aminopyrimidin-4-yl)-1H-indazole-6-carbonitrile]	–	≥ 20000	–	–	–
Nc1nccc(-n2ncc3ccc(C#CC4(O)CCCC4)cc32)n1 [Example T1-5, 1-((1-(2-aminopyrimidin-4-yl)-1H-indazol-6-yl)ethynyl) cyclopentanol]	–	1600	–	–	–
CC(C)(O)C#Cc1ccc2ncn(-c3ccnc(N)n3)c2c1 [Example T1-10, 4-(1-(2-aminopyrimidin-4-yl)-1H-benzo[d]imidazol-6-yl)-2-methylbut-3-yn-2-ol]	–	2600	–	1200	14.3
Cc1cc(C(C)(O)C#Cc2ccc3c(C)nn(-c4ccnc(N)n4)c3c2)on1 (centres unmarked) [Example T1-48, 4-(1-(2-aminopyrimidin-4-yl)-3-methyl-1H-indazol-6-yl)-2-(3-methylisoxazol-5-yl)but-3-yn-2-ol]	–	> 20000	–	1500	13
Cc1cc(C(C)(O)C#Cc2ccc3c(C(=O)N(C)C)nn(-c4ccnc(N)n4)c3c2)on1 (centres unmarked) [Example T1-52, 1-(2-aminopyrimidin-4-yl)-6-(3-hydroxy-3-(3-methyl-isoxazol-5-yl)but-1-ynyl)-N,N-dimethyl-1H-indazole-3-carboxamide]	–	≥ 20000	89	1300	10
Cc1nn(-c2ccnc(N)n2)c2cc(C#CC(C)(O)c3cncs3)ccc12 (centres unmarked) [Example T1-54, 4-(1-(2-aminopyrimidin-4-yl)-3-methyl-1H-indazol-6-yl)-2-(thiazol-5-yl)but-3-yn-2-ol]	–	17000	489	20000	105
Cc1cc(C(C)(O)C#Cc2ccc3c(C)nn(-c4ccnc(N)n4)c3c2)no1 (centres unmarked) [Example T1-58, 4-(1-(2-aminopyrimidin-4-yl)-3-methyl-1H-indazol-6-yl)-2-(5-methylisoxazol-3-yl)but-3-yn-2-ol]	243	2700	–	37	0.15
Cc1nn(-c2ccnc(N)n2)c2cc(C#CC(C)(O)c3cnccn3)ccc12 (centres unmarked) [Example T1-62, 4-(1-(2-aminopyrimidin-4-yl)-3-methyl-1H-indazol-6-yl)-2-(pyrazin-2-yl)but-3-yn-2-ol]	1900	≥ 20000	–	305	17
C[C@@](O)(C#Cc1ccc2nc(C3CC3)n(-c3ncnc(N)n3)c2c1)c1nccs1 [Example T1-63, (R)-4-(1-(4-amino-1,3,5-triazin-2-yl)-2-cyclopropyl-1H-benzo[d]imidazol-6-yl)-2-(thiazol-2-yl)but-3-yn-2-ol]	552	≥ 20000	–	64	0.23
Cc1cc(C(C)(O)C#Cc2ccc3nc(C)n(-c4ncnc(N)n4)c3c2)no1 (centres unmarked) [Example T1-64, 4-(1-(4-amino-1,3,5-triazin-2-yl)-2-methyl-1H-benzo[d]imidazol-6-yl)-2-(5-methyl-isoxazol-3-yl)but-3-yn-2-ol]	2100	≥ 20000	–	332	5
Cc1cc(C(C)(O)C#Cc2ccc3c(C(=O)N4CCOCC4)nn(-c4ccnc(N)n4)c3c2)no1 (centres unmarked) [Example T1-65, (1-(2-aminopyrimidin-4-yl)-6-(3-hydroxy-3-(5-methyl-isoxazol-3-yl)but-1-ynyl)-1H-indazol-3-yl)(morpholino) methanone]	–	≥ 20000	–	133	2.65
Cc1cc(C(C)(O)C#Cc2ccc3c(C(=O)N4CCCC4)nn(-c4ccnc(N)n4)c3c2)no1 (centres unmarked) [Example T1-66, (1-(2-aminopyrimidin-4-yl)-6-(3-hydroxy-3-(5-methyl-isoxazol-3-yl)but-1-ynyl)-1H-indazol-3-yl)(pyrrolidin-1-yl) methanone]	–	≥ 20000	–	168	1.27
Cc1nn(-c2ccnc(N)n2)c2cc(C#CC(C)(O)c3ncccn3)ccc12 (centres unmarked) [Example T1-67, 4-(1-(2-aminopyrimidin-4-yl)-3-methyl-1H-indazol-6-yl)-2-(pyrimidin-2-yl)but-3-yn-2-ol]	–	17600	–	217	4
COCc1nc2ccc(C#C[C@@](C)(O)c3nccs3)cc2n1-c1ncnc(N)n1 [Example T1-68, (R)-4-(1-(4-amino-1,3,5-triazin-2-yl)-2-(methoxymethyl)-1H-benzo[d]imidazol-6-yl)-2-(thiazol-2-yl)but-3-yn-2-ol]	–	≥ 20000	–	553	2.7
